Measurements from patent US6686381B2, “Thiazole derivatives” (Hoffmann-La Roche Inc., priority 2002, dated 2004).

Target: T1, mouse NPY5-receptor (mNPY5) (Mus musculus, UniProt O70342)
T1 construct: The full-length cDNA encoding the mouse NPY5 (mNPY5) receptor was amplified from mouse brain cDNA; expressed in transfected cells; membranes used
T1 sequence (O70342 1-466): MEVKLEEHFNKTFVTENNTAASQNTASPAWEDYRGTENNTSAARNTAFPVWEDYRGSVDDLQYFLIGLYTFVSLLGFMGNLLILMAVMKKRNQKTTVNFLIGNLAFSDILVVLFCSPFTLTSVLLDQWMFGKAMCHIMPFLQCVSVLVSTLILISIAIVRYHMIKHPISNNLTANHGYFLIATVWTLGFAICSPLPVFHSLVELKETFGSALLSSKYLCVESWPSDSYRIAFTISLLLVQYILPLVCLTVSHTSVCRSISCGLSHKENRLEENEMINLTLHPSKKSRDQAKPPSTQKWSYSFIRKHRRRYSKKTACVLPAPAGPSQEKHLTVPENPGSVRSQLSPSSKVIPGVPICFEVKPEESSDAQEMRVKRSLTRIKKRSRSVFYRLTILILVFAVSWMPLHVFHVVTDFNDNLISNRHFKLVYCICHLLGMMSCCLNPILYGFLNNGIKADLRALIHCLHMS
Assay: Radioligand competition binding
Settings: membranes of HEK293 cells expressing recombinant mNPY5; 100 pM [125I]labelled peptide YY; 1 h at 22° C.
Description: Cloning of Mouse NPY5 Receptor cDNAs:
The full-length cDNA encoding the mouse NPY5 (mNPY5) receptor was amplified from mouse brain cDNA using specific primers, designed based on the published sequence, and Pfu DNA-Polymerase. The amplification product was subcloned into the mammalian expression vector pcDNA3 using EcoRI and XhoI restriction sites. Positive clones were sequenced and one clone, encoding the published sequence (see Borowsky, B., et al., Molecular biology and pharmacology of multiple NPY Y5 receptor species homologs, Regul. Pept. (1998) 75-76:45-53) was selected for generation of stable cell clones.
Human embryonic kidney 293 (HEK293) cells were transfected with 10 μg mNPY5 DNA using the lipofectamine reagent (Gibco BRL) according to the manufacturer's instruction. Two days after transfection, geneticin selection (1 mg/ml) was initiated and several stable clones were isolated. One clone was further used for pharmacological characterization.
Radioligand Competition Binding:
Human embryonic kidney 293 cells (HEK293), expressing recombinant mouse NPY5-receptor (mNPY5) were broken by three freeze/thawing cycles in hypotonic Tris buffer (5 mM, pH 7.4, 1 mM MgCl2), homogenized and centrifuged at 72,000×g for 15 min. […] Protein was determined according to the method of Lowry using bovine serum albumine (BSA) as a standard. […]

Row | IC50 [nM] | Compound
1 | 5.4 | O=C(c1ccccn1)c1cnc(NCCCNS(=O)(=O)c2ccccc2F)s1 [Example 1, 2-Fluoro-N-{3-[5-(pyridine-2-carbonyl)-thiazol-2-ylamino]-propyl}-benzenesulfonamide]
2 | 6 | COc1ccc(C)cc1S(=O)(=O)NCCCNc1nc(C(=O)c2ccccc2C)cs1 [Example 140, 2-Methoxy-5-methyl-N-{3-[4-(2-methyl-benzoyl)-thiazol-2-ylamino]-propyl}-benzenesulfonamide]
